Reference: PubChem BioAssay AID1259418 (Broad Institute, 2018)
Several values for one entry are separate records, joined by “and”; a condition that tells them apart may be missing. Identical values can stand only once. Results filed as inconclusive are left out. Activity calls are given as the source filed them.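 How the source made its calls: active means fitted half-maximal concentration of signal decrease at or below twice the sample's top tested concentration; inconclusive means flat curve between -70 and -30 percent, or poor fit; inactive means flat within 30 percent, signal rise, or potency above limit.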

The molecules below were run against T. gondii ME49Luc in IFN-y HeLa, luciferase, 72 h (assay: inhibitors of Toxoplasma growth in IFN-γ-primed HeLa – cell-based, ME49Luc, luciferase, 72 h, dose response (AID 1259418)).

Going from `Cc1ccc(CSC2=Nc3ccccc3C3=NC(CCC(=O)NCCc4ccccc4)C(=O)N23)cc1` (configuration not stated) to `O=C(CC1N=C2c3ccccc3N=C(SCc3ccc(F)cc3)N2C1=O)NCCc1ccccc1` (configuration not stated), the AC50 falls from 30.8 µM to 4.59 µM (6.7-fold).

`COc1ccc(-c2nc(CN(c3ccccc3OC)S(=O)(=O)c3ccc(OC)cc3)c(C)o2)cc1` and `COc1ccc(-c2nc(CN(c3ccccc3OC)S(=O)(=O)c3ccc(C)cc3)c(C)o2)cc1` are within 1.5-fold of each other in AC50: 5.84 µM for the first, 5.3 µM for the second.

Going from `CN1C(=O)c2cc(NC(=O)Cc3cccs3)ccc2OC[C@H]2O[C@@H](CC(=O)NCc3ccc(-c4ccccc4)cc3)CC[C@@H]21` to `O=C(C[C@H]1CC[C@H]2[C@@H](COC[C@@H](O)CN2Cc2cc(F)ccc2F)O1)NCc1ccc(Oc2ccccc2)cc1`, the AC50 rises from 12.8 µM to 27.3 µM (2.1-fold).

`Cc1ccccc1S(=O)(=O)N1CCCCN2[C@H](C1)[C@@H](c1ccc(C#CCN(C)C)cc1)[C@@H]2CO` and `Cc1ccccc1-c1ccc([C@H]2[C@H](CO)N3CCCCN(S(=O)(=O)Cc4ccccc4)C[C@@H]23)cc1` are within 1.5-fold of each other in AC50: 20.9 µM for the first, 16.5 µM for the second.

Compared with `Cc1ccc(-c2nc(Cn3nnc(-c4nc(-c5cccs5)no4)c3C)c(C)o2)cc1`, `CCOc1ccc(-c2nc(CN(c3ccccc3C)S(=O)(=O)c3cccs3)c(C)o2)cc1` is 5.9-fold higher in AC50: 3.2 µM for the first, 18.8 µM for the second.

`C(=C\c1ccc(C2[C@H]3CNC[C@@H]2N3CC2CCOCC2)cc1)/c1ccccc1` (some centres not stated) and `O=C(Nc1ccccc1F)N1CCCCN2[C@@H](CO)[C@@H](c3ccc(/C=C/c4ccccc4)cc3)[C@@H]2C1` are within 1.5-fold of each other in AC50: 26.3 µM for the first, 22 µM for the second.

`CCc1nc(OCC(=O)NCc2ccccc2)c2ccccc2n1` and `CCCNc1nc(-c2ccccc2Cl)nc2ccccc12` are within 1.5-fold of each other in AC50: 21.9 µM for the first, 23.9 µM for the second.

Going from `Cc1cc(C)cc(S(=O)(=O)N2CCC3(CC2)NCCN=C3NCc2ccc(F)cc2)c1` to `CC(C)Cc1ccc(S(=O)(=O)N2CCC3(CC2)NCCN=C3NCc2ccc(F)cc2)cc1`, the AC50 falls from 20.5 µM to 6.29 µM (3.3-fold).

Compared with `O=S(=O)(c1ccc2c(c1)CCCC2)N1CCC2(CC1)NCCN=C2NCc1ccc2c(c1)OCO2`, `Cc1ccc(CNC2=NCCNC23CCN(S(=O)(=O)c2ccc4c(c2)CCCC4)CC3)cc1` is 1.7-fold higher in AC50: 11.1 µM for the first, 19.4 µM for the second.

First: COc1cccc(N(Cc2nc(-c3ccccc3)oc2C)S(=O)(=O)c2ccccc2C)c1
Second: COc1ccc(N(Cc2nc(-c3ccccc3)oc2C)S(=O)(=O)c2ccccc2C)cc1
The AC50 of the first is 2.1-fold lower: 5.46 µM for the first, 11.6 µM for the second.

`CC(C)C#Cc1ccc([C@@H]2[C@@H](CO)N3C(=O)CN(S(=O)(=O)c4ccccc4)C[C@H]23)cc1` and `O=C(Cc1ccccc1)N1CC(=O)N2[C@H](CO)[C@@H](c3ccc(-c4ccc(F)cc4)cc3)[C@H]2C1` are within 1.5-fold of each other in AC50: 19.2 µM for the first, 22.2 µM for the second.

Compared with `CCCC(C)c1c(-c2ccccc2)ncn1Cc1cnc(C)cn1` (configuration not stated), `O=C(NCCc1csc(-c2ccccc2)n1)C1CCN(S(=O)(=O)c2ccc(F)cc2)CC1` is 2.9-fold lower in AC50: 33.4 µM for the first, 11.4 µM for the second.

Going from `O=C(Nc1cccc(F)c1)N1CCCCN2[C@@H](CO)[C@H](c3ccc(C#Cc4cccnc4)cc3)[C@@H]2C1` to `O=C(Cc1cccnc1)N1CC(=O)N2[C@H](CO)[C@H](c3ccc(C#CC4CCCCC4)cc3)[C@@H]2C1`, the AC50 rises from 4.48 µM to 17.9 µM (4-fold).

`C[C@@H]1CN([C@@H](C)CO)C(=O)c2cccc(NC(=O)NC3CCCCC3)c2O[C@@H]1CN(C)Cc1ccc(C(F)(F)F)cc1` and `CCOc1ccc(-c2nc(CN3CCN(C(=O)NC4CCCC4)CC3)c(C)o2)cc1` are within 1.5-fold of each other in AC50: 25.7 µM for the first, 29.5 µM for the second.

`O=C(NCCCN1CCCC1)C1CCN(Cc2cc3ccccc3n2Cc2ccccc2)CC1` and `CCN1CCCC1CNC(=O)C1CCN(Cc2cc3ccccc3n2Cc2ccccc2Cl)CC1` (configuration not stated) are within 1.5-fold of each other in AC50: 23 µM for the first, 28.7 µM for the second.

Going from `Cc1ccccc1CN1C[C@@H]2C[C@H](C(=O)Nc3ccccc3)[C@@H](C1)O2` to `O=C(NCCc1csc(-c2ccccc2)n1)[C@H]1CCCN1C(=O)c1ccccc1`, the AC50 rises from 10.5 µM to 36.5 µM (3.5-fold).

`Cc1cc(C)c(S(=O)(=O)N2CCC3(CC2)NCCN=C3NCc2ccccc2C)cc1C` and `Cc1cc(C)c(S(=O)(=O)N2CCC3(CC2)NCCN=C3NCc2ccc3c(c2)OCO3)cc1C` are within 1.5-fold of each other in AC50: 6.27 µM for the first, 9.23 µM for the second.

First: O=S(=O)(c1ccc2c(c1)CCCC2)N1CCC2(CC1)NCCN=C2NCc1ccccc1F
Second: Cc1ccc(C)c(S(=O)(=O)N2CCC3(CC2)NCCN=C3NCc2ccccc2F)c1
The AC50 of the first is 1.7-fold lower: 16.4 µM for the first, 28.5 µM for the second.

Compared with `CCc1ccc(S(=O)(=O)N2CCC3(CC2)NCCN=C3NCc2ccc(F)c(Cl)c2)cc1`, `CCOc1ccccc1C(=O)N1CCC2(CC1)Nc1ccc(Cl)cc1-n1cccc12` is 5.1-fold higher in AC50: 4.73 µM for the first, 24.3 µM for the second.

Going from `CN(C)C(=O)COCc1cncc2c1CCN(c1ccccn1)C2` to `CCOc1ccccc1NS(=O)(=O)c1cc2c3c(c1)CCC(=O)N3CCC2`, the AC50 rises from 6.26 µM to 26.1 µM (4.2-fold).

`COc1cccc(-c2nc3c(s2)CN(S(=O)(=O)c2cccc(F)c2)CC3)c1` and `COc1cccc(-c2nc(C)c(-c3ccc(SCc4cccc(Cl)c4)nn3)s2)c1` are within 1.5-fold of each other in AC50: 11.3 µM for the first, 11.1 µM for the second.

Compared with `COc1ccc(-n2c(C)c([N+](=O)[O-])c3ccc(O)cc32)cc1`, `COc1ccc(CNc2nc(SCc3ccc(Cl)cc3)nc3ccccc23)cc1` is 25-fold higher in AC50: 1.41 µM for the first, 35.5 µM for the second.

Compared with `Cc1cc(C2CCCN2C(=O)Cn2nc(C(F)(F)F)c3c2CCCC3)no1` (configuration not stated), `O=C(NCc1ccc(F)cc1F)c1cc(-c2cnc(N3CCCC3)nc2)cn1CC1CC1` is 2.6-fold lower in AC50: 34.3 µM for the first, 13.2 µM for the second.

`CC(C)(O)CC(=O)NCCn1ccc2ncnc(Nc3ccc(Oc4cccc(C(F)(F)F)c4)c(Cl)c3)c21` and `Cc1cccc(-c2ccc([C@@H]3[C@@H](CO)N4C(=O)CN(C(=O)c5ccc6c(c5)OCO6)C[C@H]34)cc2)c1` are within 1.5-fold of each other in AC50: 24.1 µM for the first, 18.8 µM for the second.

`Cc1ccccc1-c1ccc([C@H]2[C@H](CO)N3C(=O)CN(C(=O)c4ccncc4)C[C@@H]23)cc1` and `N#Cc1cccc(-c2ccc3c(c2)[C@@H]2[C@@H](CCN2S(=O)(=O)c2ccc(F)cc2)[C@@H](CO)N3)c1` are within 1.5-fold of each other in AC50: 21.5 µM for the first, 15.7 µM for the second.

First: Fc1cccnc1OC1COC2(CCN(Cc3ccsc3)CC2)C1 (configuration not stated)
Second: O=S(=O)(c1ccccc1)N1CCc2c([nH]c3ccccc23)C1c1ccc(F)c(F)c1 (configuration not stated)
The AC50 of the first is 1.8-fold higher: 24.8 µM for the first, 13.9 µM for the second.

Molecule `CCC(=O)N1CC[C@@H]2[C@H]1c1cc(C#Cc3ccccc3F)ccc1N[C@@H]2CO` has an AC50 of 29.2 µM.

`O=C(Nc1ccc2c(c1)OCO2)N1C[C@@H]2N[C@H](C1)C2c1ccc(C=Cc2ccccc2)cc1` (some centres not stated) was tested, and the AC50 was 4.2 µM and 3.84 µM.
`Cc1cccc(CN2CCC3(CC2)N=C(c2cccc(C)c2)C(=O)N3)c1` was tested, and the AC50 was > 20 µM (inactive).
In the case of `COc1cccc(NC(=O)Nc2ccc(-c3nc(-c4ccc(C)cc4C)co3)cc2)c1`, the AC50 is reported as > 39 µM (inactive).
In the case of `Cc1ccc(C(=O)Nc2c(C(=O)NCc3cccnc3)[nH]c3ccccc23)cc1`, the AC50 is reported as > 39 µM (inactive).
For `COc1cc(CN2C[C@@H]3N[C@H](C2)C3c2ccc(-c3ccc(C#N)cc3)cc2)cc(OC)c1` (some centres not stated), the AC50 was 6.02 µM and 7.29 µM and 16.7 µM.
`COc1cccc(NC(=O)N2CC(=O)N3[C@H](CO)[C@@H](c4ccc(C#CCC5CCCC5)cc4)[C@H]3C2)c1` was tested, and the AC50 was > 39 µM (inactive).
In the case of `COc1ccccc1-c1nc(C)c(-c2ccc(SCc3ccccc3Cl)nn2)s1`, the AC50 is reported as > 39 µM (inactive).
`Cc1ccccc1Cn1c(CN2CCC(C(=O)N3CCCC3)CC2)cc2ccccc21` was tested, and the AC50 was > 39 µM (inactive).
`O=C(Cc1ccccn1)N1CC(=O)N2[C@H](CO)[C@@H](c3ccc(C#CCC4CCCC4)cc3)[C@@H]2C1` was tested, and the AC50 was 9.77 µM and 15.5 µM.
`Cc1nc(OCC(=O)Nc2ccc(Cl)cc2)c2ccccc2n1` was tested, and the AC50 was > 39 µM (inactive).
With `Cc1ccc2c(c1)c(Cn1cc(-c3sccc3C)nn1)nn2C` the AC50 was 20.2 µM and 28.7 µM.
`COc1ccc(-c2nc(C)c(-c3ccc(SCc4cc(C)ccc4C)nn3)s2)cc1` was tested, and the AC50 was > 39 µM (inactive).
In the case of `Cc1ccc(CNC(=O)COc2nc(C)nc3ccccc23)cc1`, the AC50 is reported as > 39 µM (inactive).
`Cc1cc2nc(CN3CCCC(CCc4ccc(F)cc4F)C3)cc(=O)n2[nH]1` (configuration not stated) was tested, and the AC50 was > 20 µM (inactive).
